Data on 24 compounds can be found in patent US20230279025A1, “KRAS G12D INHIBITORS” (Mirati Therapeutics, Inc., priority 2020, published 2023).

The target in the test is KRas G12D (Homo sapiens (Human), UniProt P01116, G12D). As to the kind of experiment: KRas G12D Binding Assay (TR-FRET displacement of Cy5 labelled tracer). The note with it: GDP-loaded KRAS G12D (amino acids 1:169), 60 minute incubation at 22° C. The method, then: After a 60 minute incubation at 22° C., the reaction was measured using a PerkinElmer EnVision multimode plate reader via TR-FRET dual wavelength detection, and the percent of control (POC) calculated using a ratiometric emission factor. […] The POC values were fit to a 4-parameter logistic curve and the IC50 value was determined as the concentration where the curve crosses 50 POC.
ND stands for “not determined.”
For orientation: TR-FRET usually uses a lanthanide donor and a delayed reading to cut background.

In general, IC50 refers to the concentration needed to halve the response being measured.

Chain of KRas G12D (P01116 other isoform, or with tags, fused parts or gaps G12D): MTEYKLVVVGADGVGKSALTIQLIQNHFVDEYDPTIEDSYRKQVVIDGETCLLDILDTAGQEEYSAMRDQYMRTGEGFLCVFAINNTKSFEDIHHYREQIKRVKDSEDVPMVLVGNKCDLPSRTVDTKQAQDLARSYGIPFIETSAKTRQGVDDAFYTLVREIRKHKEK

`Oc1cccc(-c2ncc3c(N4C[C@H]5CC[C@@H](C4)N5)nc(OCC45CCCN4CCC5)nc3c2F)c1` [Example 271, 3-(4-((1R,5S)-3,8-diazabicyclo[3.2.1]octan-3-yl)-8-fluoro-2-((hexahydro-1H-pyrrolizin-7a-yl)methoxy)pyrido[4,3-d]pyrimidin-7-yl)phenol] had a concentration for half-maximal inhibition (IC50) of 1620 nM. As for `Fc1c(-c2cccc3scnc23)ncc2c(N3C[C@H]4CC[C@@H](C3)N4)nc(OCC34CCCN3CCC4)nc12` [Example 454, 4-(4-((1R,5S)-3,8-diazabicyclo[3.2.1]octan-3-yl)-8-fluoro-2-((hexahydro-1H-pyrrolizin-7a-yl)methoxy)pyrido[4,3-d]pyrimidin-7-yl)benzo[d]thiazole], the IC50 worked out at 295 nM. Compound `Fc1c(-c2cccc3ccccc23)ncc2c(N3C[C@H]4CC[C@@H](C3)N4)nc(OCC34CCCN3CCC4)nc12` [Example 186, 4-((1R,5S)-3,8-diazabicyclo[3.2.1]octan-3-yl)-8-fluoro-7-(naphthalen-1-yl)-2-((tetrahydro-1H-pyrrolizin-7a(5H)-yl)methoxy)pyrido[4,3-d]pyrimidine] showed a half-maximal inhibitory concentration (IC50) of 29.2 nM. Turning to `O[C@@H]1C[C@@H]2CN(c3nc(OCCn4ccnc4CF)nc4c(F)c(-c5cccc6cccc(Cl)c56)ncc34)C[C@H]1N2` [Example 168, (1R,5R,6R)-3-(7-(8-chloronaphthalen-1-yl)-8-fluoro-2-(2-(2-(fluoromethyl)-1H-imidazol-1-yl)ethoxy)pyrido[4,3-d]pyrimidin-4-yl)-3,8-diazabicyclo[3.2.1]octan-6-ol], the 50% inhibitory concentration (IC50) was 583 nM. The value for `COCCO[C@@H]1C[C@@H](COc2nc(N3C[C@H]4CC[C@@H](C3)N4)c3cnc(-c4cccc5cccc(Cl)c45)c(F)c3n2)N(C)C1` [Example 202, 4-((1R,5S)-3,8-diazabicyclo[3.2.1]octan-3-yl)-7-(8-chloronaphthalen-1-yl)-8-fluoro-2-(((2S,4R)-4-(2-methoxyethoxy)-1-methylpyrrolidin-2-yl)methoxy)pyrido[4,3-d]pyrimidine] was 94 nM. For `CN(C)c1ccccc1-c1ncc2c(N3C[C@H]4CC[C@@H](C3)N4)nc(OCC34CCCN3CCC4)nc2c1F` [Example 296, 2-(4-((1R,5S)-3,8-diazabicyclo[3.2.1]octan-3-yl)-8-fluoro-2-((hexahydro-1H-pyrrolizin-7a-yl)methoxy)pyrido[4,3-d]pyrimidin-7-yl)-N,N-dimethylaniline] the value was 112 nM; for `Fc1ccc2cccc(-c3ncc4c(N5C[C@H]6CC[C@@H](C5)N6)nc(OC[C@@]56CCCN5C[C@H](F)C6)nc4c3F)c2c1F` [Example 430, 4-((1R,5S)-3,8-diazabicyclo[3.2.1]octan-3-yl)-7-(7,8-difluoronaphthalen-1-yl)-8-fluoro-2-(((2R,7aS)-2-fluorotetrahydro-1H-pyrrolizin-7a(5H)-yl)methoxy)pyrido[4,3-d]pyrimidine], 1 nM.

As to `CCc1c(F)ccc2cccc(-c3ncc4c(N5C[C@H]6CC[C@@H](C5)N6)nc(OCC56CCCN5CCC6)nc4c3F)c12` [Example 426, 4-((1R,5S)-3,8-diazabicyclo[3.2.1]octan-3-yl)-7-(8-ethyl-7-fluoronaphthalen-1-yl)-8-fluoro-2-((hexahydro-1H-pyrrolizin-7a-yl)methoxy)pyrido[4,3-d]pyrimidine], the IC50 was determined as 0.9 nM. `CN(C)C(=O)OC[C@H]1CC[C@@]2(COc3nc(N4CC5CCC(C4)N5)c4cnc(-c5cccc6cccc(Cl)c56)c(F)c4n3)CCCN12` [Example 405, (7a-(((4-(3,8-diazabicyclo[3.2.1]octan-3-yl)-7-(8-chloronaphthalen-1l-yl)-8-fluoropyrido[4,3-d]pyrimidin-2-yl)oxy)methyl)hexahydro-1H-pyrrolizin-3-yl)methyl dimethylcarbamate]: the concentration for half-maximal inhibition (IC50) was determined as 2.2 nM.

Turning to `O[C@@H]1C[C@@H]2CN(c3nc(OCCc4ccc(F)cn4)nc4c(F)c(-c5cccc6cccc(Cl)c56)ncc34)C[C@H]1N2` [Example 32, (1R,5R,6R)-3-(7-(8-chloronaphthalen-1-yl)-8-fluoro-2-(2-(5-fluoropyridin-2-yl)ethoxy)pyrido[4,3-d]pyrimidin-4-yl)-3,8-diazabicyclo[3.2.1]octan-6-ol], the IC50 amounted to 2140 nM. For `CCc1cccc2cccc(-c3ncc4c(N5C[C@H]6CC[C@@H](C5)N6)nc(OC[C@@]56CCCN5C[C@H](F)C6)nc4c3F)c12` [Example 465, 4-((1R,5S)-3,8-diazabicyclo[3.2.1]octan-3-yl)-7-(8-ethylnaphthalen-1-yl)-8-fluoro-2-(((2R,7aS)-2-fluorohexahydro-1H-pyrrolizin-7a-yl)methoxy)pyrido[4,3-d]pyrimidine] the value was 0.001 nM; for `CCc1c(F)ccc2cccc(-c3ncc4c(N5CC6CCC(C5)N6)nc(OC[C@@]56CCCN5C[C@H](F)C6)nc4c3F)c12` (stereo in doubt) [Example 381, 4-((1R,5S)-3,8-diazabicyclo[3.2.1]octan-3-yl)-7-(8-ethyl-7-fluoronaphthalen-1-yl)-8-fluoro-2-((2-fluorotetrahydro-1H-pyrrolizin-7a(5H)-yl)methoxy)pyrido[4,3-d]pyrimidine], 0.7 nM.

Take `Oc1ccc(CC(F)(F)F)c(-c2ncc3c(N4C[C@H]5CC[C@@H](C4)N5)nc(OC[C@@]45CCCN4C[C@H](F)C5)nc3c2F)c1` [Example 424, 3-(4-((1R,5S)-3,8-diazabicyclo[3.2.1]octan-3-yl)-8-fluoro-2-(((2R,7aS)-2-fluorohexahydro-1H-pyrrolizin-7a-yl)methoxy)pyrido[4,3-d]pyrimidin-7-yl)-4-(2,2,2-trifluoroethyl)phenol]: the IC50 was determined as 5 nM. The value for `NCC#Cc1cccc2cccc(-c3ncc4c(N5C[C@H]6CC[C@@H](C5)N6)nc(OCC56CCCN5CCC6)nc4c3F)c12` [Example 241, 3-(8-(4-((1R,5S)-3,8-diazabicyclo[3.2.1]octan-3-yl)-8-fluoro-2-((tetrahydro-1H-pyrrolizin-7a(5H)-yl)methoxy)pyrido[4,3-d]pyrimidin-7-yl)naphthalen-1-yl)prop-2-yn-1-amine] was 79.2 nM.

As for `CSc1cccc2cccc(-c3ncc4c(N5C[C@H]6CC[C@@H](C5)N6)nc(OCC56CCCN5CCC6)nc4c3F)c12` [Example 199, 4-((1R,5S)-3,8-diazabicyclo[3.2.1]octan-3-yl)-8-fluoro-7-(8-(methylthio)naphthalen-1-yl)-2-((tetrahydro-1H-pyrrolizin-7a(5H)-yl)methoxy)pyrido[4,3-d]pyrimidine], the IC50 worked out at 2 nM. The value for `Nc1nc(N2CC3CCC(C2)N3)c2cnc(-c3cc(O)cc4ccccc34)c(F)c2n1` [Example 182, 4-[2-amino-4-(3,8-diazabicyclo[3.2.1]octan-3-yl)-8-fluoro-pyrido[4,3-d]pyrimidin-7-yl]naphthalen-2-ol] was 269 nM; that for `C#Cc1cccc2cncc(-c3ncc4c(N5C[C@H]6CC[C@@H](C5)N6)nc(OC[C@]56CCCN5C[C@@H](F)C6)nc4c3F)c12` [Example 204, 4-((1R,5S)-3,8-diazabicyclo[3.2.1]octan-3-yl)-7-(5-ethynylisoquinolin-4-yl)-8-fluoro-2-(((2S,7aR)-2-fluorotetrahydro-1H-pyrrolizin-7a(5H)-yl)methoxy)pyrido[4,3-d]pyrimidine] was 4.4 nM. The value for `Fc1c(-c2ccccc2C2CC2)ncc2c(N3C[C@H]4CC[C@@H](C3)N4)nc(OCC34CCCN3CCC4)nc12` [Example 297] was 88.9 nM. `C[C@@H]1C[C@@H]1c1ccccc1-c1ncc2c(N3C[C@H]4CC[C@@H](C3)N4)nc(OCC34CCCN3CCC4)nc2c1F` [Example 286, 4-((1R,5S)-3,8-diazabicyclo[3.2.1]octan-3-yl)-8-fluoro-2-((hexahydro-1H-pyrrolizin-7a-yl)methoxy)-7-(2-((S,2R)-2-methylcyclopropyl)phenyl)pyrido[4,3-d]pyrimidine] displayed a half-maximal inhibitory concentration (IC50) of 17.2 nM. `Oc1cc(-c2ncc3c(N4CC5CCC(C4)N5)nc(OCC45CCCN4C[C@H](F)C5)nc3c2F)c2c(Cl)cccc2c1` (mixture of isomers) [Example 330, 4-(4-((1R,5S)-3,8-diazabicyclo[3.2.1]octan-3-yl)-8-fluoro-2-((2-fluorotetrahydro-1H-pyrrolizin-7a(5H)-yl)methoxy)pyrido[4,3-d]pyrimidin-7-yl)-5-chloronaphthalen-2-ol (racemic, trans)] gave an IC50 of 2.5 nM. `CSc1ccccc1-c1ncc2c(N3C[C@H]4CC[C@@H](C3)N4)nc(OCC34CCCN3CCC4)nc2c1F` [Example 329, 4-((1R,5S)-3,8-diazabicyclo[3.2.1]octan-3-yl)-8-fluoro-7-(2-(methylthio)phenyl)-2-((tetrahydro-1H-pyrrolizin-7a(5H)-yl)methoxy)pyrido[4,3-d]pyrimidine] came in with an IC50 of 202 nM. The compound `CC(Oc1nc(N2C[C@H]3CC[C@@H](C2)N3)c2cnc(-c3cccc4cccc(F)c34)c(F)c2n1)C12CCCN1CCC2` (stereo partly drawn) [Example 450, 4-((1R,5S)-3,8-diazabicyclo[3.2.1]octan-3-yl)-8-fluoro-7-(8-fluoronaphthalen-1-yl)-2-(1-(hexahydro-1H-pyrrolizin-7a-yl)ethoxy)pyrido[4,3-d]pyrimidine] displayed an IC50 of 37 nM. As for `Fc1ccccc1-c1ncc2c(N3C[C@H]4CC[C@@H](C3)N4)nc(OCC34CCCN3CCC4)nc2c1F` [Example 264, 4-((1R,5S)-3,8-diazabicyclo[3.2.1]octan-3-yl)-8-fluoro-7-(2-fluorophenyl)-2-((hexahydro-1H-pyrrolizin-7a-yl)methoxy)pyrido[4,3-d]pyrimidine], the half-inhibitory concentration (IC50) amounted to 4700 nM.

The compound `CN1CCc2cccc(Oc3nc(N4C[C@H]5CC[C@@H](C4)N5)c4cnc(-c5cccc6cccc(Cl)c56)c(F)c4n3)c2C1` [Example 378, 4-((1R,5S)-3,8-diazabicyclo[3.2.1]octan-3-yl)-7-(8-chloronaphthalen-1-yl)-8-fluoro-2-((2-methyl-1,2,3,4-tetrahydroisoquinolin-8-yl)oxy)pyrido[4,3-d]pyrimidine] registered a 50% inhibitory concentration (IC50) of 6250 nM.
